The values that follow come from ChEMBL document CHEMBL2016565, “Cellular uptake of covalent conjugates of oligonucleotide with membrane-modifying peptide, peptaibol” (Bioorg Med Chem, 2012).

Structures are written as SMILES. Active and inactive are the calls of the source. No cut-off for these calls is given here.

Series [1] relates to A549. The experiment in a line: Drug uptake in human A549 cells after 24 hrs by confocal laser-scanning microscopy. Type of series: ADME, cell-based. As to conditions: a549, 24 h.
For series [2], the system named is A549. The experiment in a line: Drug uptake in human A549 cells at 1 to 4 uM by confocal laser-scanning microscopy. Type of series: ADME, cell-based. As to conditions: a549, 4 µM.
In series [3] the test system is A549. The experiment in a line: Drug uptake in human A549 cells assessed as increase in fluorescence intensity at 1 uM after 2 hrs by fluorescence analysis using fluorescein labelled compound relative to oligonucleotide treated control. Type of series: ADME, cell-based. Conditions: a549, 2 h.
The subject of series [4] is A549. Kind of series: Drug uptake in human A549 cells assessed as increase in fluorescence intensity at 1 uM after 8 hrs by fluorescence analysis using fluorescein labelled compound relative to oligonucleotide treated control. Conditions: a549, 8 h. The class given is ADME, cell-based.
Series [5] relates to A549. The experiment in a line: Drug uptake in human A549 cells assessed as increase in fluorescence intensity at 1 uM after 24 hrs by fluorescence analysis using fluorescein labelled compound relative to oligonucleotide treated control. Type of series: ADME, cell-based. As to conditions: a549, 24 h.
For series [6], the system named is A549. The experiment in a line: Antisense activity in human A549 cells assessed as down regulation of p53 protein at 1 uM incubated for 8 hrs in serum-free medium followed by 24 hrs incubation in serum-containing medium by Western blotting analysis. Type of series: functional, cell-based. (In western blotting, separated proteins are transferred to a membrane and probed.)

In series [7] the test system is A549. The experiment in a line: Antisense activity in human A549 cells assessed as down regulation of p53 protein at 5 uM incubated for 8 hrs in serum-free medium followed by 24 hrs incubation in serum-containing medium by Western blotting analysis. Type of series: functional.
Series [8] has as its system A549. Kind of series: Cytotoxicity against human A549 cells assessed as cytoplasmic LDH release at 5 uM after 2 to 24 hrs by spectrophotometry. The class given is cell-based. As to conditions: a549, 5 µM.
In series [9] the test system is A549. Kind of series: Drug uptake in human A549 cells assessed as increase in fluorescence intensity at 1 uM after 24 hrs by fluorescence analysis relative to control. The class given is ADME, cell-based. As to conditions: a549, 24 h.

Take `CC[C@H](C)[C@H](NC(=O)[C@H](CC(N)=O)NC(=O)C(C)(C)NC(C)=O)C(=O)N[C@H](C(=O)NC(C)(C)C(=O)N1CCC[C@H]1C(=O)N[C@@H](CC(C)C)C(=O)N[C@@H](CC(C)C)C(=O)NC(C)(C)C(=O)N1CCC[C@H]1C(=O)N[C@H](C(=O)N[C@@H](CSC1CC(=O)N(CCCCCC(=O)NCCCCCCOP(=O)(O)OC[C@H]2O[C@@H](n3ccc(N)nc3=O)C[C@@H]2OP(O)(=S)OC[C@H]2O[C@@H](n3ccc(N)nc3=O)C[C@@H]2OP(O)(=S)OC[C@H]2O[C@@H](n3ccc(N)nc3=O)C[C@@H]2OP(O)(=S)OC[C@H]2O[C@@H](n3cc(C)c(=O)[nH]c3=O)C[C@@H]2OP(O)(=S)OC[C@H]2O[C@@H](n3cnc4c(=O)[nH]c(N)nc43)C[C@@H]2OP(O)(=S)OC[C@H]2O[C@@H](n3ccc(N)nc3=O)C[C@@H]2OP(O)(=S)OC[C@H]2O[C@@H](n3cc(C)c(=O)[nH]c3=O)C[C@@H]2OP(O)(=S)OC[C@H]2O[C@@H](n3ccc(N)nc3=O)C[C@@H]2OP(O)(=S)OC[C@H]2O[C@@H](n3ccc(N)nc3=O)C[C@@H]2OP(O)(=S)OC[C@H]2O[C@@H](n3ccc(N)nc3=O)C[C@@H]2OP(O)(=S)OC[C@H]2O[C@@H](n3ccc(N)nc3=O)C[C@@H]2OP(O)(=S)OC[C@H]2O[C@@H](n3ccc(N)nc3=O)C[C@@H]2OP(O)(=S)OC[C@H]2O[C@@H](n3ccc(N)nc3=O)C[C@@H]2OP(O)(=S)OC[C@H]2O[C@@H](n3cc(C)c(=O)[nH]c3=O)C[C@@H]2OP(O)(=S)OC[C@H]2O[C@@H](n3cnc4c(=O)[nH]c(N)nc43)C[C@@H]2OP(O)(=S)OC[C@H]2O[C@@H](n3cnc4c(=O)[nH]c(N)nc43)C[C@@H]2OP(O)(=S)OC[C@H]2O[C@@H](n3ccc(N)nc3=O)C[C@@H]2OP(O)(=S)OC[C@H]2O[C@@H](n3cc(C)c(=O)[nH]c3=O)C[C@@H]2OP(O)(=S)OC[C@H]2O[C@@H](n3ccc(N)nc3=O)C[C@@H]2OP(O)(=S)OC[C@H]2O[C@@H](n3ccc(N)nc3=O)C[C@@H]2O)C1=O)C(N)=O)[C@@H](C)CC)[C@@H](C)CC` (some centres undefined): the values for the Drug uptake result in the series with A549 [1] and in the series with A549 [2] (TDE = time-dependent effect) were “Dose-dependent effect” and “tde”, respectively. Further, the “fold change (FC)” value came to 4 in the series with A549 [3], 7 in the series on A549 [4] and 14 with A549 [5]. Further, the outcome in the series with A549 [6] was inactive. The results for the Activity in the series on A549 [7] and in the series with A549 [8] were 50% and “Non-toxic”, respectively.

`CC[C@H](C)[C@H](NC(=O)[C@H](CC(N)=O)NC(=O)C(C)(C)NC(C)=O)C(=O)N[C@H](C(=O)NC(C)(C)C(=O)N1CCC[C@H]1C(=O)N[C@@H](CC(C)C)C(=O)N[C@@H](CC(C)C)C(=O)NC(C)(C)C(=O)N1CCC[C@H]1C(=O)N[C@H](C(=O)N[C@@H](CSSCCCCCCOP(=O)(O)OC[C@H]1O[C@@H](n2ccc(N)nc2=O)C[C@@H]1OP(O)(=S)OC[C@H]1O[C@@H](n2ccc(N)nc2=O)C[C@@H]1OP(O)(=S)OC[C@H]1O[C@@H](n2ccc(N)nc2=O)C[C@@H]1OP(O)(=S)OC[C@H]1O[C@@H](n2cc(C)c(=O)[nH]c2=O)C[C@@H]1OP(O)(=S)OC[C@H]1O[C@@H](n2cnc3c(=O)[nH]c(N)nc32)C[C@@H]1OP(O)(=S)OC[C@H]1O[C@@H](n2ccc(N)nc2=O)C[C@@H]1OP(O)(=S)OC[C@H]1O[C@@H](n2cc(C)c(=O)[nH]c2=O)C[C@@H]1OP(O)(=S)OC[C@H]1O[C@@H](n2ccc(N)nc2=O)C[C@@H]1OP(O)(=S)OC[C@H]1O[C@@H](n2ccc(N)nc2=O)C[C@@H]1OP(O)(=S)OC[C@H]1O[C@@H](n2ccc(N)nc2=O)C[C@@H]1OP(O)(=S)OC[C@H]1O[C@@H](n2ccc(N)nc2=O)C[C@@H]1OP(O)(=S)OC[C@H]1O[C@@H](n2ccc(N)nc2=O)C[C@@H]1OP(O)(=S)OC[C@H]1O[C@@H](n2ccc(N)nc2=O)C[C@@H]1OP(O)(=S)OC[C@H]1O[C@@H](n2cc(C)c(=O)[nH]c2=O)C[C@@H]1OP(O)(=S)OC[C@H]1O[C@@H](n2cnc3c(=O)[nH]c(N)nc32)C[C@@H]1OP(O)(=S)OC[C@H]1O[C@@H](n2cnc3c(=O)[nH]c(N)nc32)C[C@@H]1OP(O)(=S)OC[C@H]1O[C@@H](n2ccc(N)nc2=O)C[C@@H]1OP(O)(=S)OC[C@H]1O[C@@H](n2cc(C)c(=O)[nH]c2=O)C[C@@H]1OP(O)(=S)OC[C@H]1O[C@@H](n2ccc(N)nc2=O)C[C@@H]1OP(O)(=S)OC[C@H]1O[C@@H](n2ccc(N)nc2=O)C[C@@H]1O)C(N)=O)[C@@H](C)CC)[C@@H](C)CC` (some centres undefined): the result in the series on A549 [6] was inactive. The Activity was 20% with A549 [7] and “Non-toxic” with A549 [8].

As for `CC[C@H](C)[C@H](NC(=O)[C@H](CC(N)=O)NC(=O)C(C)(C)NC(C)=O)C(=O)N[C@H](C(=O)NC(C)(C)C(=O)N1CCC[C@H]1C(=O)N[C@@H](CC(C)C)C(=O)N[C@@H](CC(C)C)C(=O)NC(C)(C)C(=O)N1CCC[C@H]1C(=O)N[C@H](C(=O)N[C@@H](CSC1CC(=O)N(CCCCCC(=O)NCCCCCCOP(=O)(O)OC[C@H]2O[C@@H](n3cnc4c(=O)[nH]c(N)nc43)C[C@@H]2OP(O)(=S)OC[C@H]2O[C@@H](n3cnc4c(=O)[nH]c(N)nc43)C[C@@H]2OP(O)(=S)OC[C@H]2O[C@@H](n3cnc4c(N)ncnc43)C[C@@H]2OP(O)(=S)OC[C@H]2O[C@@H](n3cnc4c(=O)[nH]c(N)nc43)C[C@@H]2OP(O)(=S)OC[C@H]2O[C@@H](n3ccc(N)nc3=O)C[C@@H]2OP(O)(=S)OC[C@H]2O[C@@H](n3ccc(N)nc3=O)C[C@@H]2OP(O)(=S)OC[C@H]2O[C@@H](n3cnc4c(N)ncnc43)C[C@@H]2OP(O)(=S)OC[C@H]2O[C@@H](n3cnc4c(=O)[nH]c(N)nc43)C[C@@H]2OP(O)(=S)OC[C@H]2O[C@@H](n3cnc4c(=O)[nH]c(N)nc43)C[C@@H]2OP(O)(=S)OC[C@H]2O[C@@H](n3cnc4c(=O)[nH]c(N)nc43)C[C@@H]2OP(O)(=S)OC[C@H]2O[C@@H](n3cnc4c(=O)[nH]c(N)nc43)C[C@@H]2OP(O)(=S)OC[C@H]2O[C@@H](n3cnc4c(=O)[nH]c(N)nc43)C[C@@H]2OP(O)(=S)OC[C@H]2O[C@@H](n3cnc4c(=O)[nH]c(N)nc43)C[C@@H]2OP(O)(=S)OC[C@H]2O[C@@H](n3cnc4c(N)ncnc43)C[C@@H]2OP(O)(=S)OC[C@H]2O[C@@H](n3cnc4c(=O)[nH]c(N)nc43)C[C@@H]2OP(O)(=S)OC[C@H]2O[C@@H](n3ccc(N)nc3=O)C[C@@H]2OP(O)(=S)OC[C@H]2O[C@@H](n3cnc4c(N)ncnc43)C[C@@H]2OP(O)(=S)OC[C@H]2O[C@@H](n3cnc4c(=O)[nH]c(N)nc43)C[C@@H]2OP(O)(=S)OC[C@H]2O[C@@H](n3cnc4c(=O)[nH]c(N)nc43)C[C@@H]2OP(O)(=S)OC[C@H]2O[C@@H](n3cnc4c(=O)[nH]c(N)nc43)C[C@@H]2O)C1=O)C(N)=O)[C@@H](C)CC)[C@@H](C)CC` (some centres undefined), the Drug uptake entry in the series on A549 [9] is recorded as “Not Active”.

Regarding `Nc1ccn([C@H]2C[C@H](OP(O)(=S)OC[C@H]3O[C@@H](n4cnc5c(N)ncnc54)C[C@@H]3OP(O)(=S)OC[C@H]3O[C@@H](n4cnc5c(=O)[nH]c(N)nc54)C[C@@H]3OP(O)(=S)OC[C@H]3O[C@@H](n4cnc5c(=O)[nH]c(N)nc54)C[C@@H]3OP(O)(=S)OC[C@H]3O[C@@H](n4cnc5c(=O)[nH]c(N)nc54)C[C@@H]3OP(O)(=S)OC[C@H]3O[C@@H](n4cnc5c(=O)[nH]c(N)nc54)C[C@@H]3OP(O)(=S)OC[C@H]3O[C@@H](n4cnc5c(=O)[nH]c(N)nc54)C[C@@H]3OP(O)(=S)OC[C@H]3O[C@@H](n4cnc5c(=O)[nH]c(N)nc54)C[C@@H]3OP(O)(=S)OC[C@H]3O[C@@H](n4cnc5c(N)ncnc54)C[C@@H]3OP(O)(=S)OC[C@H]3O[C@@H](n4cnc5c(=O)[nH]c(N)nc54)C[C@@H]3OP(O)(=S)OC[C@H]3O[C@@H](n4ccc(N)nc4=O)C[C@@H]3OP(O)(=S)OC[C@H]3O[C@@H](n4cnc5c(N)ncnc54)C[C@@H]3OP(O)(=S)OC[C@H]3O[C@@H](n4cnc5c(=O)[nH]c(N)nc54)C[C@@H]3OP(O)(=S)OC[C@H]3O[C@@H](n4cnc5c(=O)[nH]c(N)nc54)C[C@@H]3OP(O)(=S)OC[C@H]3O[C@@H](n4cnc5c(=O)[nH]c(N)nc54)C[C@@H]3O)[C@@H](COP(O)(=S)O[C@H]3C[C@H](n4ccc(N)nc4=O)O[C@@H]3COP(O)(=S)O[C@H]3C[C@H](n4cnc5c(=O)[nH]c(N)nc54)O[C@@H]3COP(O)(=S)O[C@H]3C[C@H](n4cnc5c(N)ncnc54)O[C@@H]3COP(O)(=S)O[C@H]3C[C@H](n4cnc5c(=O)[nH]c(N)nc54)O[C@@H]3COP(O)(=S)O[C@H]3C[C@H](n4cnc5c(=O)[nH]c(N)nc54)O[C@@H]3CO)O2)c(=O)n1` (some centres undefined), the Drug uptake result in the series with A549 [1] and with A549 [2] was “Not Active” in each case.
